Values joined by “and” are separate entries in the source; they are usually repeats but may differ in a detail not shown here. Equal values may be shown once.
Key:
[1] = tested on: crude striatal synaptosomal suspensions; experiment: In vitro accumulation of [3H]DA by crude striatal synaptosomal suspensions; assay type: biochemical, mice
Description: All other studies are performed in C57 black mice.
The in vitro accumulation of [^3H]DA by crude striatal synaptosomal suspensions is measured using the method of Snyder, S.H. et al., J.Pharmacol.Exp.Ther. 165, 78 (1968) with minor modifications. Briefly, crude synaptosomal suspensions are prepared by homogenizing striatal tissue in 50 vols. (w/v) of ice-cold 0.32 M sucrose, then centrifuging the homogenate for 10 minutes at 1,000 x g. […] After vortexing, tubes (except temperature blanks) are incubated in a waterbath at 37°C for five minutes, then returned to ice. Synaptosomes are harvested by filtration. Filters are rinsed twice with 5 ml aliquots of physiological saline. Radioactivity in the filters is quantified by liquid scintillation spectroscopy. Assays are performed in sextuplicate at each DA concentration, with half of the samples serving as blanks. Active uptake is defined as the difference between [^3H]DA (PM/mg tissue/5 min.) incubation at 37°C after correction for uptake at 0-4°C.

[2] = Binding of MPTP to synthetic dopamine melanin (Scatchard analysis)
Description: Synthetic dopamine melanin is prepared by autooxidation (Lyden et al., supra). The dopamine melanin suspension (in distilled water) is adjusted to contain 5 mg melanin per ml. Both pigment suspensions are stored at 2°C.
(§1) The reaction mixtures are incubated at room temperature for one hour. Reference samples contain distilled water instead of melanin.
(§2) From the obtained data, the classes of binding sites, association constants and the binding capacity of the melanins are estimated according to Scatchard, G. et al., J. Am. Chem. Soc. 79, 12 (1957). As the molecular weight of melanin is unknown, the value for the number of binding sites is expressed as mol per mg melanin. The calculations are based on a melanin content of 2.5 mg per incubation.

[3] = tested on: monkeys (Macaca fascicularis); experiment: Neurological examination of MPTP-treated monkeys with or without chloroquine pretreatment; assay type: in vivo; conditions: individual monkeys
Excerpt: Four animals are naive controls. […] TABLE 3

[4] = Binding of MPTP to beef eye melanin (Scatchard analysis)
Description: Melanin from beef eyes is prepared according to Potts, A.M., Ophthalmol. 3, 405 (1964). The pigment is finally suspended in distilled water to a concentration of 10 mg (by dry weight) per ml suspension.
as §1, §2

[5] = biological target: [^3H]mazindol binding site, striatal membranes (Mus musculus, UniProt Q61327); conditions: three weeks after MPTP 20 mg/kg/h x 4
[^3H]mazindol binding site, striatal membranes, sequence (Q61327 whole entry): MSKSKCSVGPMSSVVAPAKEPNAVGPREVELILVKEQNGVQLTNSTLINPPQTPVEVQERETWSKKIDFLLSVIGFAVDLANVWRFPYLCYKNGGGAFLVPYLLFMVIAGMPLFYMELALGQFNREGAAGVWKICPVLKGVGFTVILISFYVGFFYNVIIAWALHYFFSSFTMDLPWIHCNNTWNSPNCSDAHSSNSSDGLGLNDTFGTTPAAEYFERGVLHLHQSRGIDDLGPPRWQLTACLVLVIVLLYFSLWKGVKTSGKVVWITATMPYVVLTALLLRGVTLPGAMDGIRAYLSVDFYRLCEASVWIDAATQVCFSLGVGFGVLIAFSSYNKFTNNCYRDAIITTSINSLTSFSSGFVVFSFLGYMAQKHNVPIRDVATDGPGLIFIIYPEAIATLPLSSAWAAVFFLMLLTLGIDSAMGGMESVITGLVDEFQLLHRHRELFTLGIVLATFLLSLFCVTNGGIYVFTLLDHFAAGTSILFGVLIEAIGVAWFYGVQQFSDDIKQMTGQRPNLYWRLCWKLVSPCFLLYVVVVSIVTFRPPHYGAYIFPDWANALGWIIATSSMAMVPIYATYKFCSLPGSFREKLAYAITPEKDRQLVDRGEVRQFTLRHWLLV
Description: This group is used only for anatomical studies looking for cell loss in the substantive nigra cells (SNc). All other studies are performed in C57 black mice.

[6] = tested on: C57 black mice; experiment: Silver degeneration study of striatal nerve terminals (Fink-Heimer); assay type: in vivo; conditions: MPTP 20 mg/kg/h x 4, killed one day later
Description: Nerve terminal degeneration studies are performed using the method of Fink, R.P. et al., Brain Research 4, 369 (1967) (Procedure 1). This method makes possible selective silver impregnation of degenerating nerve fibers and terminals. Mice for these studies are killed under sodium pentobarbital anesthesia (40 mg/kg) by transcardial perfusion with 10% formal saline. The brain is immediately removed and stored in perfusion fluid at 0-4°C for at least one week before being sectioned on a freezing microtomee. 30 µm coronal sections are collected in 5% formal saline, then stained with silver according to Fink et al., supra.
Some fine granular degeneration is also found in the nucleus accumbens and olfactory tubercle, but in these regions it was much less dense. No such degeneration is found in identically treated sections of control mice, or in other brain regions visible in coronal brain sections at the level of the striatum.

[7] = tested on: squirrel monkeys; experiment: Treatment of MPTP-induced parkinsonism in squirrel monkeys; assay type: in vivo; conditions: i.p. MPTP, three dosage schedules (Groups A-C)
Description: Male squirrel monkeys (aged 2-3 years) are used for this study. […] All injections are intraperitoneal.
Three different dosage schedules of MPTP are used. Monkey Group A receives four doses, 2 mg/kg each, which are given at two-hour intervals. Monkey Group B is treated over a five-day period. On day 1, a single 2 mg/kg dose is given. On day 3, two injections of 2 mg/kg each are given, six hours apart. On day 5, a 3 mg/kg dose is given followed by a 0.5 mg/kg dose four hours later (total dose: 9.5 mg/kg). Three doses of 3 mg/kg each are given to Monkey Group C, spaced at six-day intervals. Monkey Group D serves as a control.
A similar response to the same treatment is observed on each of the next four days. Subsequently, the animal becomes less responsive to medication and is sacrificed on day 10. One monkey in Group B responds to Sinemet® (one-eighth of a 10/100 tablet) with full mobility on day 9. However, on subsequent days, […] becomes increasingly less responsive to medication, often appearing uncoordinated and shaky. This monkey is sacrificed on day 15. […] Three days later, this monkey becomes profoundly hypokinetic, develops slow respirations, and dies.
After increased bradykinesis and frequent nodding-off are observed in the monkeys, several monkeys of Groups A, B and C are administered melanin by injection into the cerebrospinal fluid at a dose of 50 mg/kg daily. […]

[8] = one week after MPTP 20 mg/kg/h x 4

CN1CC=C(c2ccccc2)CC1 [MPTP, 1-Methyl-4-phenyl-1,2,5,6-tetrahydropyridine]
Vmax of [^3H]DA striatal uptake, % of control [1, 8]: 37 % of control | decrease of Vmax of striatal synaptosomal [^3H]DA uptake [1, 8]: 62% | Vmax of [^3H]DA uptake ([1]; one week after MPTP 20 mg/kg/h x 4, control 5540 ± 480): 2080 ± 305 cpm[^3H]DA/mg tissue/5 min | Km ([1]; striatal synaptosomes of mice one week after MPTP 20 mg/kg/h x 4, read-out: Km(µm) of [^3H]DA uptake): 0.12 ± 0.02 µM | Vmax of [^3H]DA striatal uptake, % of control ([1]; three months after MPTP 20 mg/kg/h x 4): 79 % of control | Vmax of [^3H]DA striatal uptake ([1]; three months after MPTP, control 6238 (± 520)): 4928 (± 408) CPM [^3H]DA/mg tissue/5 min | number of binding sites n1 ([2]; first class of binding sites): n1 = 0.08 µ mole per mg melanin | association constant K1 ([2]; first class of binding sites, 60 min): K1 = 5.82 x 10^5 M^-1 | association constant K2 ([2]; second (intermediary) class of binding sites, 60 min): K2 = 1.22 x 10^4 M^-1 | number of binding sites n2 ([2]; second class of binding sites): n2 = 0.05 µ mole per mg melanin | number of binding sites n3 ([2]; third class of binding sites): n3 = 0.14 µ mole per mg melanin | association constant K3 ([2]; third class of binding sites, 60 min): K3 = 7.68 x 10^2 M^-1 | Neurological Status: Spontaneous Movement ([3]; MPTP alone 0.35 mg per kg i.v. daily for four days, control score 10): 1 | Neurological Status: Total (x 5.26) ([3]; MPTP alone, control 100): 16 and 29 and 8 | Neurological Status: Reflexes ([3]; MPTP alone, control score 2): 0.5 and 1.5 and 0 | Neurological Status: Tone ([3]; MPTP alone, control score 2): 0.5 (2×) and 2 | Neurological Status: Tremor ([3]; MPTP alone, control score 5): 1 (2×) and 0 | association constant K1 ([4]; MPTP 5.7 µM - […], room temperature, one hour, first class of binding sites, 60 min): K1 = 2.32 x 10^5 M^-1 | total binding capacity (Σn) ([4]; beef eye melanin): 0.53 µmol/mg melanin | number of binding sites n1 ([4]; first class of binding sites): n1 = 0.09 µ mole per mg melanin | number of binding sites n2 ([4]; second class of binding sites): n2 = 0.44 µ mole per mg melanin | association constant K2 ([4]; second class of binding sites, 60 min): K2 = 1.22 x 10^3 M^-1 | reduction of Bmax of [^3H]mazindol binding sites [5]: 44% | Bmax of [^3H]mazindol binding ([5]; control 361): 201 pmol/g tissue | fine granular argyrophilic debris in striata [6]: Three of three mice | behavioural effect of MPTP [7]: profoundly akinetic

— patent EP0434750B1 (priority 1988, dated 1990)
